Results as given in patent US11787833B2, “Modified cyclic dinucleoside compounds as sting modulators” (ALIGOS THERAPEUTICS, INC., priority 2019, dated 2023).
Read-outs that look alike come from different tables or passages of the source.

Biological target: T1, 293T-Dual hSTING-R232 cells (Homo sapiens, UniProt Q86WV6, H232R)
T1 construct: host or cells: 293T-Dual hSTING-R232 cells (HEK 293T)
Test: 293T R232 cell reporter assay (HEK 293T reporter assay)
Assay type: cell-based
Conditions: digitonin 10 μg/mL, 30 min exposure, 20 h incubation
Protocol: 293T-Dual hSTING-R232 cells (Invivogen) were plated in 96 well plates at a density of 5×10^4 cells per well in DMEM supplemented with 10% FBS, 1% Pen-Strep, 1% non-essential amino acids, 1% glutamine, and 1% HEPES. Assay setup took place after allowing cells to adhere for 48 h. Compounds dissolved in water were serially diluted in dosing buffer containing 10 μg/mL digitonin. Media was aspirated from the cells, and 50 μL buffer with compound was added in triplicate. After 30 min at 37° C., buffer was aspirated and replaced with 100 μL media. Cells were incubated for 20 h at 37° C., 5% CO2. IFN-beta expression and activation of the interferon regulatory factor (IRF) were measured based on luciferase and alkaline phosphatase reporter activity, respectively. Cell viability was determined in parallel.

[1] = alkaline phosphatase reporter, read-out: EC50 [μM] IRF reporter
[2] = luciferase reporter, read-out: EC50 [μM] IRN-β reporter
[3] = EC50 [μM] IRF reporter, alkaline phosphatase reporter
[4] = EC50 [μM] IRN-β reporter, luciferase reporter

T1 sequence (Q86WV6 whole entry H232R): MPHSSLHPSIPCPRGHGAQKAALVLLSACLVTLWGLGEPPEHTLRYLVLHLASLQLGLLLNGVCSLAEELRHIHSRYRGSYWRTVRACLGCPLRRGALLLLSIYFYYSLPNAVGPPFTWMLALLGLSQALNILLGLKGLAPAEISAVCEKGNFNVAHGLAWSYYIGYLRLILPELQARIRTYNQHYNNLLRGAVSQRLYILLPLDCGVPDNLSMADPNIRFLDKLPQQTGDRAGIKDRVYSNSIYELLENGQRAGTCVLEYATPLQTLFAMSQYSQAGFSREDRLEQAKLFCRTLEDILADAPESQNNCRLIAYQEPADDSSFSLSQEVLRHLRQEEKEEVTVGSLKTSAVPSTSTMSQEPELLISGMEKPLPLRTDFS

Row | EC50 [1] [µM] | EC50 [2] [µM] | Compound | EC50 [3] [µM] | EC50 [4] [µM]
1 | 0.25 to 100 | > 100 | Nc1ncnc2c1ncn2C1OC2COP(=O)(S)OC3C(O)C(n4cnc5c(N)ncnc54)C4CC43COP(=O)(S)OC1C2O (single isomer, unassigned) [Compound 1-14a] |  | 
2 | 0.25 to 100 | 0.25 to 100 | Nc1nc2c(ncn2[C@H]2[C@H](O)[C@@H]3OP(=O)(O)OC[C@H]4C[C@@H](n5cnc6c(N)ncnc65)[C@H](O)[C@@H]4OP(=O)(O)OC[C@@]34C[C@H]24)c(=O)[nH]1 [Compound 1-23] |  | 
3 | 0.25 to 100 | 0.25 to 100 | COC1C2COP(=O)(S)OC3C(O)C(n4cnc5c(N)ncnc54)C4CC43COP(=O)(S)OC1C(n1cnc3c(=O)[nH]c(N)nc31)O2 (single isomer, unassigned) [Compound 1-6a] |  | 
4 | 0.25 to 100 | > 100 | CO[C@H]1[C@H]2OP(=O)(O)OC[C@@]34C[C@@H]3[C@@H](n3cnc5c(N)ncnc53)[C@H](OP(=O)(O)OC[C@H]1O[C@H]2n1cnc2c(=O)[nH]c(N)nc21)[C@@H]4O [Compound 1-3] |  | 
5 | > 100 | > 100 | Nc1nc2c(ncn2C2SC3COP(=O)(S)OC4C(O)C(n5cnc6c(N)ncnc65)C5CC54COP(=O)(O)OC2C3O)c(=O)[nH]1 (single isomer, unassigned) [Compound 1-30b] |  | 
6 | 0.25 to 100 | 0.25 to 100 | COC1C2COP(=O)(S)OC3C(COP(=O)(O)OC1C(n1cnc4c(=O)[nH]c(N)nc41)O2)C1CC1(n1cnc2c(N)ncnc21)C3O (stereo not drawn) [Compound 1-16a] |  | 
7 | 0.25 to 100 | 0.25 to 100 | Nc1ncnc2c1ncn2C1OC2COP(=O)(S)OC3C(O)C(n4cnc5c(N)ncnc54)C4CC43COP(=O)(S)OC1C2O (stereo not drawn) [Compound 1-14c] |  | 
8 | 0.25 to 100 | 0.25 to 100 | Nc1nc2c(ncn2[C@H]2[C@@H]3OP(=O)(O)OC[C@H]4O[C@@H](n5cnc6c(N)ncnc65)[C@H](F)[C@@H]4OP(=O)(O)OC[C@]4(C[C@H]24)[C@H]3O)c(=O)[nH]1 [Compound 1-8] |  | 
9 | < 0.25 | < 0.25 | CO[C@H]1[C@H]2OP(=O)(O)OC[C@@]34C[C@@H]3[C@@H](n3ccc5c(N)ncnc53)[C@H](O)[C@@H]4OP(=O)(O)OC[C@H]1O[C@H]2n1cnc2c(=O)[nH]c(N)nc21 [Compound 1-4] |  | 
10 | > 100 | > 100 | CO[C@H]1[C@H]2OP(=O)(O)OC[C@]34C[C@@H]3[C@@H](n3cnc5c(N)ncnc53)[C@H](O)[C@@H]4OP(=O)(O)OC[C@H]1O[C@H]2c1scc2c(=O)[nH]c(N)nc12 [Compound 1-12] |  | 
11 | 0.25 to 100 |  | COC1C2COP(=O)(S)OC3C(O)C(n4cnc5c(N)ncnc54)C4CC43COP(=O)(S)OC1C(n1cnc3c(=O)[nH]c(N)nc31)O2 (single isomer, unassigned) [Compound 1-6b] |  | 
12 | 0.25 to 100 | > 100 | Nc1ncnc2c1ncn2C1OC2COP(=O)(S)OC3C(O)C(n4cnc5c(N)ncnc54)C4CC43COP(=O)(S)OC1C2O (single isomer, unassigned) [Compound 1-14b] |  | 
13 | < 0.25 | < 0.25 | Nc1nc2c(ncn2[C@H]2[C@H](O)[C@@H]3OP(=O)(O)OC[C@H]4O[C@@H](n5cnc6c(N)ncnc65)[C@H](F)[C@@H]4OP(=O)(O)OC[C@@]34C[C@H]24)c(=O)[nH]1 [Compound 1-9] |  | 
14 | 0.25 to 100 | > 100 | Nc1nc2c(ncn2[C@@]23C[C@H]2[C@@H]2COP(=O)(O)O[C@H]4[C@@H](F)[C@H](n5cnc6c(N)ncnc65)O[C@@H]4COP(=O)(O)O[C@@H]3[C@@H]2O)c(=O)[nH]1 [Compound 1-24] |  | 
15 | 0.25 to 100 | 0.25 to 100 | COC1C2COP(=O)(S)OC3C(COP(=O)(S)OC1C(c1snc4c(=O)[nH]c(N)nc14)O2)OC(n1cnc2c(N)ncnc21)C3F (single isomer, unassigned) [Compound 1-48a] |  | 
16 | < 0.25 | 0.25 to 100 | CO[C@H]1[C@H]2OP(=O)(O)OC[C@]34C[C@@H]3[C@@H](n3cnc5c(N)ncnc53)[C@H](O)[C@@H]4O[P@@](=O)(S)OC[C@H]1O[C@H]2n1nnc2c(=O)[nH]c(N)nc21 [Compound 1-35b] |  | 
17 | < 0.25 | < 0.25 | CO[C@H]1[C@H]2OP(=O)(O)OC[C@@H]3[C@@H](OP(=O)(O)OC[C@H]1O[C@H]2n1cnc2c(=O)[nH]c(N)nc21)[C@@H](O)[C@]1(n2cnc4c(N)ncnc42)C[C@@H]31 [Compound 1-7] |  | 
18 | < 0.25 | < 0.25 | Nc1nc2c(ncn2[C@@H]2O[C@@H]3COP(=O)(O)O[C@@H]4[C@@H](COP(=O)(O)O[C@H]3[C@H]2O)[C@@H]2C[C@@]2(n2cnc3c(N)ncnc32)[C@@H]4O)c(=O)[nH]1 [Compound 1-17] |  | 
19 | < 0.25 | 0.25 to 100 | COC1C2COP(=O)(S)OC3C(COP(=O)(S)OC1C(c1snc4c(=O)[nH]c(N)nc14)O2)OC(n1cnc2c(N)ncnc21)C3F (stereo not drawn) [Compound 1-48c] |  | 

More lines, now with the values behind:

Row | Compound | EC50 [1] [µM] | EC50 [2] [µM] | EC50 [3] [µM] | EC50 [4] [µM]
20 | Nc1nc2c(ncn2C2OC34COC2C3OP(=O)(O)OCC2OC(c3snc5c(N)ncnc35)CC2OP(=O)(O)OC4)c(=O)[nH]1 (stereo not drawn) [Compound 1-52] | < 0.25 | 0.25 to 100 |  | 
21 | COC1C2COP(=O)(S)OC3C(COP(=O)(S)OC1C(c1snc4c(=O)[nH]c(N)nc14)O2)OC(n1cnc2c(N)ncnc21)C3F (stereo not drawn) [Compound 1-48d] | < 0.25 |  |  | 
22 | COC1C2COP(=O)(O)OC3C(COP(=O)(O)OC1C(c1scc4c(=O)[nH]c(N)nc14)O2)OC(n1cnc2c(N)ncnc21)C3F (stereo not drawn) [Compound 1-5] | < 0.25 | < 0.25 |  | 
23 | Nc1nc2c(ncn2[C@H]2[C@@H]3OP(=O)(O)OC[C@]45C[C@@H]4[C@@H](n4cnc6c(N)ncnc64)[C@H](O)[C@@H]5O[P@](=O)([S][Na])OC[C@@]4(C[C@H]24)[C@H]3O)c(=O)[nH]1 [Compound 1-37] |  |  | 0.25 to 100 | > 100
24 | COC1C2COP(=O)(S)OC3C(COP(=O)(S)OC1C(c1snc4c(=O)[nH]c(N)nc14)O2)OC(n1cnc2c(N)ncnc21)C3F (single isomer, unassigned) [Compound 1-48b] | < 0.25 | < 0.25 |  | 
25 | Nc1ncnc2c1ncn2[C@H]1[C@H](O)[C@@H]2O[P@](=O)([S][Na])OC[C@H]3O[C@@H](n4cnc5c(N)ncnc54)[C@H](OP(=O)(O)OC[C@@]24C[C@H]14)[C@@H]3O [Compound 1-15a] |  |  | > 100 | > 100
26 | CO[C@H]1[C@H]2OP(=O)(O)OC[C@@]34CO[C@@H]([C@H](n5cnc6c(N)ncnc65)O3)[C@@H]4OP(=O)(O)OC[C@H]1O[C@H]2c1snc2c(=O)[nH]c(N)nc12 [Compound 1-49] | < 0.25 | 0.25 to 100 |  | 
27 | Nc1nc2c(nnn2[C@@H]2O[C@@H]3CO[P@@](=O)([S][Na])O[C@H]4[C@@H](O)[C@H](n5cnc6c(N)ncnc65)[C@H]5C[C@@]54COP(=O)(O)O[C@@H]2[C@@H]3O)c(=O)[nH]1 [Compound 1-34b] |  |  | 0.25 to 100 | 0.25 to 100
28 | COC1C2COP(=O)(O)OC3CC(c4snc5c(N)ncnc45)OC3COP(=O)(O)OC1C(n1cnc3c(=O)[nH]c(N)nc31)O2 (stereo not drawn) [Compound 1-25] | < 0.25 | < 0.25 |  | 
29 | CO[C@H]1[C@H]2OP(=O)(O)OC[C@H]3O[C@@H](n4cnc5c(N)nnnc54)[C@H](O)[C@@H]3OP(=O)(O)OC[C@H]1O[C@H]2n1cnc2c(=O)[nH]c(N)nc21 [Compound 1-11] | > 100 | > 100 |  | 
30 | CO[C@H]1[C@H]2OP(=O)(O)OC[C@]34C[C@@H]3[C@@H](n3cnc5c(N)ncnc53)[C@H](O)[C@@H]4O[P@](=O)([S][Na])OC[C@H]1O[C@H]2n1cnc2c(=O)[nH]c(N)nc21 [Compound 1-10a] |  |  | 0.25 to 100 | 0.25 to 100
31 | Nc1nc2c(ncn2C2OC34COP(=O)(O)OC5C6OCC5(COP(=O)(O)OC2C3C4)OC6n2cnc3c(N)ncnc32)c(=O)[nH]1 (stereo not drawn) [Compound 1-27] | < 0.25 | < 0.25 |  | 
32 | Nc1ncnc2c1ncn2[C@H]1[C@H](O)[C@@H]2O[P@](=O)([S][Na])OC[C@H]3O[C@@H](n4cnc5c(=O)[nH]cnc54)[C@H](F)[C@@H]3OP(=O)(O)OC[C@@]23C[C@H]13 [Compound 1-20a] |  |  | 0.25 to 100 | 0.25 to 100
33 | Nc1nc2c(ncn2[C@H]2[C@H](O)[C@@H]3OP(=O)(O)OC[C@]45C[C@@H]4[C@@H](n4cnc6c(N)ncnc64)[C@H](O)[C@@H]5O[P@](=O)([S][Na])OC[C@@]34C[C@H]24)c(=O)[nH]1 [Compound 1-38a] |  |  | > 100 | > 100
34 | Nc1nc2c(ncn2[C@@H]2O[C@@H]3CO[P@@](=O)([S][Na])O[C@H]4[C@@H](O)[C@H](n5cnc6c(N)ncnc65)[C@H]5C[C@]54COP(=O)(O)O[C@@H]2[C@@H]3F)c(=O)[nH]1 [Compound 1-22a] |  |  | 0.25 to 100 | 0.25 to 100
35 | Nc1ncnc2c1ncn2[C@H]1[C@H](O)[C@@H]2O[P@@](=O)([S][Na])OC[C@H]3O[C@@H](n4cnc5c(N)ncnc54)[C@H](OP(=O)(O)OC[C@@]24C[C@H]14)[C@@H]3O [Compound 1-15b] |  |  | 0.25 to 100 | 0.25 to 100
36 | Nc1nc2c(ncn2[C@H]2[C@H](O)[C@@H]3OP(=O)(O)OC[C@]45C[C@@H]4[C@@H](n4cnc6c(N)ncnc64)[C@H](O)[C@@H]5O[P@@](=O)([S][Na])OC[C@@]34C[C@H]24)c(=O)[nH]1 [Compound 1-38b] |  |  | > 100 | > 100
37 | Nc1nc2c(ncn2[C@H]2[C@H](O)[C@@H]3OP(=O)(O)OC[C@H]4O[C@@H](n5cnc6c(N)ncnc65)[C@H](F)[C@@H]4O[P@](=O)([S][Na])OC[C@@]34C[C@H]24)c(=O)[nH]1 [Compound 1-19a] |  |  | 0.25 to 100 | 0.25 to 100
